Assay results taken from US20060223792A1, “Phenyl and pyridyl LTA4H modulators” (priority 2005, published 2006).

Target: T1, recombinant human LTA4 hydrolase (rhLTA4H) (Homo sapiens, UniProt P09960)
T1 construct: made in house; host or cells: Spodoptera frugiperda (Sf-9) cells, baculovirus (pFastBac1)
T1 sequence (P09960 1-611): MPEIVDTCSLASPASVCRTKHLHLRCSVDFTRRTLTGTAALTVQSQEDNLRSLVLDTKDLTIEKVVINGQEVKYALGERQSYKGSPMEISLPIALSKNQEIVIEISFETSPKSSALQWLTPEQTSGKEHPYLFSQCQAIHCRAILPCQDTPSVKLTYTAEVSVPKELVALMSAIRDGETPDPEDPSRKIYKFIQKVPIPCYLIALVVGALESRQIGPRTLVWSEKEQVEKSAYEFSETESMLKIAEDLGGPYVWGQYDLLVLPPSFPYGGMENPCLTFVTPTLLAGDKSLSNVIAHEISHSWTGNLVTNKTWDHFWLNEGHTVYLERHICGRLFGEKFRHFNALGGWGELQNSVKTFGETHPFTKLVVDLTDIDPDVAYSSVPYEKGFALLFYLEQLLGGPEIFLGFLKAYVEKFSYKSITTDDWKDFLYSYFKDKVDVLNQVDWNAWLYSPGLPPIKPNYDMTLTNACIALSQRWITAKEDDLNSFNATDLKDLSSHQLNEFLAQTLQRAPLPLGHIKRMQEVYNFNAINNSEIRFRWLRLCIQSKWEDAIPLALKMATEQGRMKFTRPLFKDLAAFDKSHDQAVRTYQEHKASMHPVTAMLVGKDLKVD
Test: Recombinant human LTA4 hydrolase assay for LTA4 hydrolase inhibitor activity
Assay type: biochemical
Conditions: recombinant human LTA4H, LTB4 quantified by enzyme-linked immunoassay; average of one to three determinations; read-out: IC50
Experimental: Recombinant Human LTA4 Hydrolase Assay for LTA4 Hydrolase Inhibitor Activity
Compounds of the present invention were tested for LTA4 hydrolase inhibitor activity against recombinant human LTA4 hydrolase (rhLTA4H). Vectors were prepared and used to express rhLTA4H essentially as follows: LTA4 hydrolase encoding DNA was amplified by polymerase chain reaction (PCR) using a human placental cDNA library as a template. Oligonucleotide primers for the PCR reaction were based on the 5′-end, and the complement of the 3′-end, of the published nucleotide sequence for the coding region of the human LTA4 hydrolase gene (C. D. Funk et al., Proc. Natl. Acad. Sci. USA 1987, 84:6677-6681). The amplified […] DNA fragment encoding LTA4 hydrolase was isolated and cloned into the pFastBac1 vector (Invitrogen). Recombinant baculovirus was generated as described by the manufacturer, and used to infect Spodoptera frugiperda (Sf-9) cells. Recombinant LTA4 hydrolase enzyme was purified from the infected Sf-9 cells essentially as described by J. K. Gierse et al. (Protein Expr. Purif. 1993, 4(5):358-366). The purified enzyme solution was adjusted to contain 0.29 mg/mL LTA4 hydrolase, 50 mM Tris (pH 8.0),150 mM NaCl, 5 mM dithiothreitol, 50% glycerol, and EDTA-free Complete protease inhibitor cocktail (Roche). The specific activity of the enzyme was about 3.8 μmol/min/mg.
LTA4 substrate was prepared from the methyl ester of LTA4 (Cayman Chemical) by treatment with 67 equiv. of NaOH under nitrogen at rt for 40 min. The LTA4 substrate in its free acid form was kept frozen at −80° C. until needed. Each compound was diluted to different concentrations in assay buffer (0.1 M potassium phosphate (pH 7.4), 5 mg/mL fatty acid free BSA) containing 10% DMSO. A 25-μL aliquot of each compound dilution was incubated for 10 min at rt with an equal volume of assay buffer containing 36 ng of recombinant human LTA4H. The solution was then adjusted to 200 μL with assay buffer. LTA4 (free acid) was thawed and diluted in assay buffer to a concentration of 357 ng/mL, and 25 μL (9 ng) of LTA4 substrate was added to the reaction mixture (total volume=225 μL) at time zero. Each reaction was carried out at rt for 10 min. The reaction was stopped by diluting 10 μL of the reaction mixture with 200 μL of assay buffer. LTB4 was quantifiedin the diluted sample by a commercially available enzyme-linked immunoassay (Cayman Chemical Co.), as recommended by the manufacturer. Positive controls, under essentially identical conditions but without addition of an inhibitor compound, and negative controls, containing all assay components except enzyme, were routinely run in each experiment. IC50 values were determined by fitting the activity data at different compound concentrations to a 4-parameter equation using the Grafit program (Erithacus software).
The IC50 values presented in the table below should be expected to fall within the typical three-fold variability of assays of this type. The values presented here are, in general, an average of one to three determinations.

**Q.** Which IC50 does the source give for `O=C(O)C1CCN(Cc2ccc(OCCc3ccccc3)nc2)CC1` [Example 94, 1-(6-Phenethyloxy-pyridin-3-ylmethyl)-piperidine-4-carboxylic acid] here?
**A.** 254 nM

**Q.** Which IC50 does the source give for `c1ccc(CCOc2ccc(CN3CCCCC3)cc2)cc1` [Example 95, 1-(4-Phenethyloxy-benzyl)-piperidine] here?
**A.** 36 nM

**Q.** With `c1ccc(CCCOc2ccc(CN3CCCCC3)cc2)cc1` [Example 97, 1-[4-(3-Phenyl-propoxy)-benzyl]-piperidine] as the compound, how does the IC50 read?
**A.** 31 nM

**Q.** `c1ccc(CCCCOc2ccc(CN3CCCCC3)cc2)cc1` [Example 98, 1-[4-(4-Phenyl-butoxy)-benzyl]-piperidine] was tested. Which IC50 did it give?
**A.** 167 nM

**Q.** For `O=C1NCCC12CCN(Cc1ccc(OCCc3ccccc3)cc1)CC2` [Example 100, 8-(4-Phenethyloxy-benzyl)-2,8-diaza-spiro[4.5]decan-1-one], which IC50 is on record?
**A.** 121 nM

**Q.** For `NC(=O)C1CCN(Cc2ccc(OCCc3ccccc3)cc2)CC1` [Example 101, 1-(4-Phenethyloxy-benzyl)-piperidine-4-carboxylic acid amide], which IC50 is on record?
**A.** 28 nM

**Q.** Which IC50 does the source give for `NC(=O)C1CCCN(Cc2ccc(OCCc3ccccc3)cc2)C1` (stereo not drawn) [Example 102, 1-(4-Phenethyloxy-benzyl)-piperidine-3-carboxylic acid amide] here?
**A.** 36 nM

**Q.** How did the IC50 turn out when `OC1CCN(Cc2ccc(OCCc3ccccc3)cc2)CC1` [Example 103, 1-(4-Phenethyloxy-benzyl)-piperidin-4-ol] was run?
**A.** 70 nM

**Q.** `NC1CCN(Cc2ccc(OCCc3ccccc3)cc2)CC1` [Example 105, 1-(4-Phenethyloxy-benzyl)-piperidin-4-ylamine] was tested. Which IC50 did it give?
**A.** 25 nM

**Q.** With `CCOC(=O)C1CCN(Cc2ccc(OCCCc3ccccc3)cc2)CC1` [Example 106, 1-[4-(3-Phenyl-propoxy)-benzyl]-piperidine-4-carboxylic acid ethyl ester] as the compound, how does the IC50 read?
**A.** 154 nM

**Q.** With `OC1CCN(Cc2ccc(OCCCc3ccccc3)cc2)CC1` [Example 108, 1-[4-(3-Phenyl-propoxy)-benzyl]-piperidin-4-ol] as the compound, how does the IC50 read?
**A.** 16 nM

**Q.** With `OC1CCCN(Cc2ccc(OCCCc3ccccc3)cc2)C1` (stereo not drawn) [Example 109, 1-[4-(3-Phenyl-propoxy)-benzyl]-piperidin-3-ol] as the compound, how does the IC50 read?
**A.** 23 nM

**Q.** Which IC50 does the source give for `NC(=O)C1CCN(Cc2ccc(OCCCc3ccccc3)cc2)CC1` [Example 110, 1-[4-(3-Phenyl-propoxy)-benzyl]-piperidine-4-carboxylic acid amide] here?
**A.** 9 nM

**Q.** How did the IC50 turn out when `NC(=O)C1CCCN(Cc2ccc(OCCCc3ccccc3)cc2)C1` (stereo not drawn) [Example 111, 1-[4-(3-Phenyl-propoxy)-benzyl]-piperidine-3-carboxylic acid amide] was run?
**A.** 95 nM

**Q.** `NC(=O)NC1CCN(Cc2ccc(OCCc3ccccc3)cc2)CC1` [Example 114, [1-(4-Phenethyloxy-benzyl)-piperidin-4-yl]-urea] was tested. Which IC50 did it give?
**A.** 17 nM

**Q.** For `COC(=O)NC1CCN(Cc2ccc(OCCc3ccccc3)cc2)CC1` [Example 115, [1-(4-Phenethyloxy-benzyl)-piperidin-4-yl]-carbamic acid methyl ester], which IC50 is on record?
**A.** 78 nM

**Q.** With `CCOC(=O)C1CCN(CCOc2ccc(OCCCc3ccccc3)cc2)CC1` [Example 116, 1-{2-[4-(3-Phenyl-propoxy)-phenoxy]-ethyl}-piperidine-4-carboxylic acid ethyl ester] as the compound, how does the IC50 read?
**A.** 195 nM

**Q.** `NC1CCN(Cc2ccc(OCCCc3ccccc3)cc2)CC1` [Example 118, 1-[4-(3-Phenyl-propoxy)-benzyl]-piperidin-4-ylamine] was tested. Which IC50 did it give?
**A.** 40 nM

**Q.** `COC(=O)NC1CCN(Cc2ccc(OCCCc3ccccc3)cc2)CC1` [Example 121, {1-[4-(3-Phenyl-propoxy)-benzyl]-piperidin-4-yl}-carbamic acid methyl ester] was tested. Which IC50 did it give?
**A.** 8 nM

**Q.** `NC(=O)NC1CCN(Cc2ccc(OCCCc3ccccc3)cc2)CC1` [Example 122, {1-[4-(3-Phenyl-propoxy)-benzyl]-piperidin-4-yl}-urea] was tested. Which IC50 did it give?
**A.** 35 nM

**Q.** How did the IC50 turn out when `O=C(Oc1ccc(OCCN2CCCCC2)cc1)C(Cl)c1ccccc1` (stereo not drawn) [Example 123, Chloro-phenyl-acetic acid 4-(2-piperidin-1-yl-ethoxy)-phenyl ester] was run?
**A.** 150 nM
